Source: US12371454B2, “Cyclic peptide compound having Kras inhibitory action” (priority 2019, dated 2025)
Starred links: 1 amine or outer side, 2 acyl side, 3 side chain; linkers in the order of their positions; H or OH if unused. Positions of bridges follow the written chain, without caps; N, C: chain ends. Non-standard residues stand in square brackets, D forms with d. Residues, ends and D or L forms follow the SMILES beside them. *: point of attachment. hPhe(3-Cl-4-CF3) = N[C@@H](CCc1ccc(C(F)(F)F)c(Cl)c1)C(=O)O; NEtPhe(4-Me) = CCN[C@@H](Cc1ccc(C)cc1)C(=O)O; NMeAbu(4,4,4-F3) = CN[C@@H](CC(F)(F)F)C(=O)O; NMePhe(4-Me) = CN[C@@H](Cc1ccc(C)cc1)C(=O)O; NMedβ3hAla = C[C@H](CC(=O)[*:2])N(C)[*:1]; NMeAla(cPent) = CN[C@@H](CC1CCCC1)C(=O)O; NMeNva(5,5-F2) = CN[C@@H](CCC(F)F)C(=O)O; NMeGly(cPent) = CN[C@H](C(=O)O)C1CCCC1; NMeCha = CN[C@@H](CC1CCCCC1)C(=O)O; NMehLeu = CN[C@@H](CCC(C)C)C(=O)O; NMeCba = CN[C@@H](CC1CCC1)C(=O)O; NMeChg = CN[C@H](C(=O)O)C1CCCCC1; NMeI = CC[C@H](C)[C@H](NC)C(=O)O; NMeD = CN[C@@H](CC(=O)O)C(=O)O; NMeL = CN[C@@H](CC(C)C)C(=O)O; NMeV = CN[C@H](C(=O)O)C(C)C; d(β3hA) = C[C@@H](N)CC(=O)O; NMeS = CN[C@@H](CO)C(=O)O; NMeA = CN[C@@H](C)C(=O)O; Piperidide = C1CCN(*)CC1; Pyrrolidide = C1CCN(*)C1; Ac5c = NC1(C(=O)O)CCCC1; Aze = O=C(O)[C@@H]1CCN1; Aib = CC(C)(N)C(=O)O; Sar = CNCC(=O)O

Columns and labels:
[1] = system: Human pancreatic cancer cell line AsPC-1; experiment: Measurement of AsPC-1 cell growth inhibition (AsPC-1 CGI); format: cell-based; settings: 96 h
Procedure, shortened: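 AsPC-1 cells in 15% FBS RPMI-1640 were exposed to test compound for 96 hours at 37° C, with CellTiter-Glo as endpoint.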

[2] = biological target: T1, Kras and SOS1 (biotin-tagged human Kras loaded with GDP, His-tagged human SOS1) (Homo sapiens, UniProt P01116, G12D); experiment: Protein-protein interaction inhibition between Kras and SOS1 (KrasGl2D-SOS PPI) using AlphaScreen; format: binding; settings: AlphaScreen; biotin-tagged human Kras loaded with GDP, His-tagged human SOS1; read-out: KRAS G12D-SOS PPI IC50
T1 construct: made in house; host or cells: E. coli (stated for Kras only)
T1 sequence (P01116 1-188 isoform P01116-2 G12D): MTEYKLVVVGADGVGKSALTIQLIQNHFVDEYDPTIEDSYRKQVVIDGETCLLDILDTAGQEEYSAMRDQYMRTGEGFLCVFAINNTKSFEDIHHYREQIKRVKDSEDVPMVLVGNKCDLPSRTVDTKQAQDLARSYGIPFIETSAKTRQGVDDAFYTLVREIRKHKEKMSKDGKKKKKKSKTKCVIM
Procedure, shortened: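 Donor beads (nickel) hold His-SOS1; acceptor beads (streptavidin) hold biotin-Kras bound to GDP. Signal measured at 520-620 nm following 680 nm excitation.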

Row | SMILES | IC50 [1] [nM] | IC50 [2] [nM]
1 | CC[C@H](C)[C@@H]1NC(=O)[C@H](CC(C)C)N(C)C(=O)C[C@@H](C)N(C)C(=O)[C@H](C2CCCCC2)N(C)C(=O)C2(CCCC2)NC(=O)[C@@H]2CCCN2C(=O)[C@H](CCc2ccc(C(F)(F)F)c(Cl)c2)NC(=O)CN(C)C(=O)[C@H](Cc2ccc(C)cc2)N(C)C(=O)[C@@H]2CCN2C(=O)[C@H](C)N(C)C1=O [Compound 1673] (cyclo([Ac5c][NMeChg][NMedβ3hAla][NMeL]I[NMeA][Aze][NMePhe(4-Me)][Sar][hPhe(3-Cl-4-CF3)]P)) | 100 to 500 | 5.4
2 | CC[C@H](C)[C@@H]1NC(=O)[C@H](CC(C)C)N(C)C(=O)C[C@@H](C(=O)N2CCCCC2)N(C)C(=O)[C@H](C2CCCCC2)N(C)C(=O)C(C)(C)NC(=O)[C@@H]2CCCN2C(=O)[C@H](CCc2ccc(C(F)(F)F)c(Cl)c2)NC(=O)CN(C)C(=O)[C@H](CC2CCCCC2)N(C)C(=O)CN(C)C(=O)CN(C)C1=O [Compound 1680] ([NMeL]I[Sar][Sar][NMeCha][Sar][hPhe(3-Cl-4-CF3)]P[Aib][NMeChg][NMeD]-Piperidide; lactam N-11) | 50 to 100 | 0.61
3 | CC[C@H](C)[C@@H]1NC(=O)[C@H](CC(C)C)N(C)C(=O)C[C@@H](C)N(C)C(=O)[C@H](C2CCCCC2)N(C)C(=O)C2(CCCC2)NC(=O)[C@@H]2CCCN2C(=O)[C@H](CCc2ccc(C(F)(F)F)c(Cl)c2)NC(=O)CN(C)C(=O)[C@H](Cc2ccc(C)cc2)N(C)C(=O)CN(C)C(=O)CN(C)C1=O [Compound 1682] (cyclo([Ac5c][NMeChg][NMedβ3hAla][NMeL]I[Sar][Sar][NMePhe(4-Me)][Sar][hPhe(3-Cl-4-CF3)]P)) | 100 to 500 | 2.4
4 | CC[C@H](C)[C@@H]1NC(=O)[C@H](CC(C)C)N(C)C(=O)C[C@@H](C(=O)N2CCCCC2)N(C)C(=O)[C@H](C(C)C)N(C)C(=O)C2(CCCC2)NC(=O)[C@@H]2CCCN2C(=O)[C@H](CCc2ccc(C(F)(F)F)c(Cl)c2)NC(=O)CN(C)C(=O)[C@H]([C@@H](C)CC)N(C)C(=O)[C@@H]2CCN2C(=O)[C@H](C)N(C)C1=O [Compound 1684] ([NMeL]I[NMeA][Aze][NMeI][Sar][hPhe(3-Cl-4-CF3)]P[Ac5c][NMeV][NMeD]-Piperidide; lactam N-11) | 100 to 500 | 4.3
5 | CC[C@H](C)[C@@H]1NC(=O)[C@H](CC(C)C)N(C)C(=O)C[C@@H](C(=O)N2CCCCC2)N(C)C(=O)[C@H](C2CCCCC2)N(C)C(=O)C2(CCCC2)NC(=O)[C@@H]2CCCN2C(=O)[C@H](CCc2ccc(C(F)(F)F)c(Cl)c2)NC(=O)CN(C)C(=O)[C@H]([C@@H](C)CC)N(C)C(=O)CN(C)C(=O)CN(C)C1=O [Compound 1686] ([NMeL]I[Sar][Sar][NMeI][Sar][hPhe(3-Cl-4-CF3)]P[Ac5c][NMeChg][NMeD]-Piperidide; lactam N-11) | 100 to 500 | 1.5
6 | CC[C@H](C)[C@@H]1NC(=O)[C@H](CC(C)C)N(C)C(=O)C[C@@H](C(=O)N2CCCCC2)N(C)C(=O)[C@H](C2CCCCC2)N(C)C(=O)C2(CCCC2)NC(=O)[C@@H]2CCCN2C(=O)[C@H](CCc2ccc(C(F)(F)F)c(Cl)c2)NC(=O)CN(C)C(=O)[C@H](CC2CCCC2)N(C)C(=O)CN(C)C(=O)CN(C)C1=O [Compound 1689] ([NMeL]I[Sar][Sar][NMeAla(cPent)][Sar][hPhe(3-Cl-4-CF3)]P[Ac5c][NMeChg][NMeD]-Piperidide; lactam N-11) | 50 to 100 | 1.1
7 | CC[C@H](C)[C@@H]1NC(=O)[C@H](CC(C)C)N(C)C(=O)C[C@@H](C)N(C)C(=O)[C@H](C2CCCC2)N(C)C(=O)C2(CCCC2)NC(=O)[C@@H]2CCCN2C(=O)[C@H](CCc2ccc(C(F)(F)F)c(Cl)c2)NC(=O)CN(C)C(=O)[C@H](Cc2ccc(C)cc2)N(C)C(=O)CN(C)C(=O)CN(C)C1=O [Compound 1694] (cyclo([Ac5c][NMeGly(cPent)][NMedβ3hAla][NMeL]I[Sar][Sar][NMePhe(4-Me)][Sar][hPhe(3-Cl-4-CF3)]P)) | 20 to 50 | 0.55
8 | CC[C@H](C)[C@@H]1NC(=O)[C@H](C)N(C)C(=O)C[C@@H](C(=O)N2CCCCC2)N(C)C(=O)[C@H](C2CCCCC2)N(C)C(=O)C2(CCCC2)NC(=O)[C@@H]2CCCN2C(=O)[C@H](CCc2ccc(C(F)(F)F)c(Cl)c2)NC(=O)CN(C)C(=O)[C@H](CC2CCCCC2)N(C)C(=O)CN(C)C(=O)CN(C)C1=O [Compound 1696] ([NMeA]I[Sar][Sar][NMeCha][Sar][hPhe(3-Cl-4-CF3)]P[Ac5c][NMeChg][NMeD]-Piperidide; lactam N-11) | 50 to 100 | 0.57
9 | CC[C@H](C)[C@@H]1NC(=O)[C@H](CC(C)C)N(C)C(=O)C[C@@H](C(=O)N2CCCC2)N(C)C(=O)[C@H](C(C)C)N(C)C(=O)C2(CCCC2)NC(=O)[C@@H]2CCCN2C(=O)[C@H](CCc2ccc(C(F)(F)F)c(Cl)c2)NC(=O)CN(C)C(=O)[C@H](CC2CCCC2)N(C)C(=O)CN(C)C(=O)CN(C)C1=O [Compound 1699] ([NMeL]I[Sar][Sar][NMeAla(cPent)][Sar][hPhe(3-Cl-4-CF3)]P[Ac5c][NMeV][NMeD]-Pyrrolidide; lactam N-11) | 100 to 500 | 1.1
10 | CC[C@H](C)[C@@H]1NC(=O)[C@H](CCC(F)F)N(C)C(=O)C[C@@H](C(=O)N2CCCCC2)N(C)C(=O)[C@H](C2CCCCC2)N(C)C(=O)C2(CCCC2)NC(=O)[C@@H]2CCCN2C(=O)[C@H](CCc2ccc(C(F)(F)F)c(Cl)c2)NC(=O)CN(C)C(=O)[C@H](CC2CCCCC2)N(C)C(=O)CN(C)C(=O)CN(C)C1=O [Compound 1700] ([NMeNva(5,5-F2)]I[Sar][Sar][NMeCha][Sar][hPhe(3-Cl-4-CF3)]P[Ac5c][NMeChg][NMeD]-Piperidide; lactam N-11) | 20 to 50 | 0.66
11 | CC[C@H](C)[C@@H]1NC(=O)[C@H](CC(F)(F)F)N(C)C(=O)C[C@@H](C(=O)N2CCCCC2)N(C)C(=O)[C@H](C2CCCCC2)N(C)C(=O)C2(CCCC2)NC(=O)[C@@H]2CCCN2C(=O)[C@H](CCc2ccc(C(F)(F)F)c(Cl)c2)NC(=O)CN(C)C(=O)[C@H](CC2CCCCC2)N(C)C(=O)CN(C)C(=O)CN(C)C1=O [Compound 1701] ([NMeAbu(4,4,4-F3)]I[Sar][Sar][NMeCha][Sar][hPhe(3-Cl-4-CF3)]P[Ac5c][NMeChg][NMeD]-Piperidide; lactam N-11) | 20 to 50 | 0.75
12 | CC[C@H](C)[C@@H]1NC(=O)[C@H](CC(F)(F)F)N(C)C(=O)C[C@@H](C(=O)N2CCCCC2)N(C)C(=O)[C@H](C(C)C)N(C)C(=O)C2(CCCC2)NC(=O)[C@@H]2CCCN2C(=O)[C@H](CCc2ccc(C(F)(F)F)c(Cl)c2)NC(=O)CN(C)C(=O)[C@H](CC2CCCCC2)N(C)C(=O)[C@@H]2CCN2C(=O)[C@H](C)N(C)C1=O [Compound 1704] ([NMeAbu(4,4,4-F3)]I[NMeA][Aze][NMeCha][Sar][hPhe(3-Cl-4-CF3)]P[Ac5c][NMeV][NMeD]-Piperidide; lactam N-11) | 100 to 500 | 6
13 | CC[C@H](C)[C@@H]1NC(=O)[C@H](CC(C)C)N(C)C(=O)C[C@@H](C(=O)N2CCCCC2)N(C)C(=O)[C@H](C(C)C)N(C)C(=O)C2(CCCC2)NC(=O)[C@@H]2CCCN2C(=O)[C@H](CCc2ccc(C(F)(F)F)c(Cl)c2)NC(=O)CN(C)C(=O)[C@H](CCC(C)C)N(C)C(=O)[C@@H]2CCN2C(=O)[C@H](C)N(C)C1=O [Compound 1709] ([NMeL]I[NMeA][Aze][NMehLeu][Sar][hPhe(3-Cl-4-CF3)]P[Ac5c][NMeV][NMeD]-Piperidide; lactam N-11) | 100 to 500 | 10
14 | CC[C@H](C)[C@@H]1NC(=O)[C@H](CC(C)C)N(C)C(=O)C[C@@H](C(=O)N2CCCC2)N(C)C(=O)[C@H](C(C)C)N(C)C(=O)C2(CCCC2)NC(=O)[C@@H]2CCCN2C(=O)[C@H](CCc2ccc(C(F)(F)F)c(Cl)c2)NC(=O)CN(C)C(=O)[C@H](CC2CCCCC2)N(C)C(=O)CN(C)C(=O)CN(C)C1=O [Compound 1711] ([NMeL]I[Sar][Sar][NMeCha][Sar][hPhe(3-Cl-4-CF3)]P[Ac5c][NMeV][NMeD]-Pyrrolidide; lactam N-11) | 100 to 500 | 0.78
15 | CC[C@H](C)[C@@H]1NC(=O)[C@H](CO)N(C)C(=O)C[C@@H](C(=O)N2CCCCC2)N(C)C(=O)[C@H](C2CCCCC2)N(C)C(=O)C2(CCCC2)NC(=O)[C@@H]2CCCN2C(=O)[C@H](CCc2ccc(C(F)(F)F)c(Cl)c2)NC(=O)CN(C)C(=O)[C@H](CC2CCCCC2)N(C)C(=O)CN(C)C(=O)CN(C)C1=O [Compound 1713] ([NMeS]I[Sar][Sar][NMeCha][Sar][hPhe(3-Cl-4-CF3)]P[Ac5c][NMeChg][NMeD]-Piperidide; lactam N-11) | 100 to 500 | 0.49
16 | CC[C@H](C)[C@@H]1NC(=O)[C@H](CC(C)C)N(C)C(=O)C[C@@H](C)NC(=O)[C@H](C2CCCC2)N(C)C(=O)C2(CCCC2)NC(=O)[C@@H]2CCCN2C(=O)[C@H](CCc2ccc(C(F)(F)F)c(Cl)c2)NC(=O)CN(C)C(=O)[C@H](Cc2ccc(C)cc2)N(CC)C(=O)[C@@H]2CCN2C(=O)[C@H](C)N(C)C1=O [Compound 1714] (cyclo([Ac5c][NMeGly(cPent)][d(β3hA)][NMeL]I[NMeA][Aze][NEtPhe(4-Me)][Sar][hPhe(3-Cl-4-CF3)]P)) | 50 to 100 | 2.3
17 | CC[C@H](C)[C@@H]1NC(=O)[C@H](CC(C)C)N(C)C(=O)C[C@@H](C(=O)N2CCCCC2)N(C)C(=O)[C@H](C(C)C)N(C)C(=O)C2(CCCC2)NC(=O)[C@@H]2CCCN2C(=O)[C@H](CCc2ccc(C(F)(F)F)c(Cl)c2)NC(=O)CN(C)C(=O)[C@H](CC2CCC2)N(C)C(=O)[C@@H]2CCN2C(=O)[C@H](C)N(C)C1=O [Compound 1716] ([NMeL]I[NMeA][Aze][NMeCba][Sar][hPhe(3-Cl-4-CF3)]P[Ac5c][NMeV][NMeD]-Piperidide; lactam N-11) | 100 to 500 | 7.9
